Data as given in ChEMBL document CHEMBL5465560, “Selectivity Literature for EUbOPEN Chemogenomic Library” (2024).

What was measured:
[1] = biological target: Phosphorylase b kinase gamma catalytic chain, skeletal muscle/heart isoform (Homo sapiens) (UniProt Q16816); settings: at 10 µM
[2] = biological target: Fibroblast growth factor receptor 2 (Homo sapiens) (UniProt P21802); assay: Selectivity interaction (KinomeScan (DiscoverX)) EUB0001049a FGFR2; settings: at 1 µM
[3] = biological target: T1, Homeodomain-interacting protein kinase 4 (Homo sapiens) (UniProt Q8NE63); assay: Selectivity interaction (KinomeScan (DiscoverX)) EUB0000045b HIPK4
T1 sequence (whole entry): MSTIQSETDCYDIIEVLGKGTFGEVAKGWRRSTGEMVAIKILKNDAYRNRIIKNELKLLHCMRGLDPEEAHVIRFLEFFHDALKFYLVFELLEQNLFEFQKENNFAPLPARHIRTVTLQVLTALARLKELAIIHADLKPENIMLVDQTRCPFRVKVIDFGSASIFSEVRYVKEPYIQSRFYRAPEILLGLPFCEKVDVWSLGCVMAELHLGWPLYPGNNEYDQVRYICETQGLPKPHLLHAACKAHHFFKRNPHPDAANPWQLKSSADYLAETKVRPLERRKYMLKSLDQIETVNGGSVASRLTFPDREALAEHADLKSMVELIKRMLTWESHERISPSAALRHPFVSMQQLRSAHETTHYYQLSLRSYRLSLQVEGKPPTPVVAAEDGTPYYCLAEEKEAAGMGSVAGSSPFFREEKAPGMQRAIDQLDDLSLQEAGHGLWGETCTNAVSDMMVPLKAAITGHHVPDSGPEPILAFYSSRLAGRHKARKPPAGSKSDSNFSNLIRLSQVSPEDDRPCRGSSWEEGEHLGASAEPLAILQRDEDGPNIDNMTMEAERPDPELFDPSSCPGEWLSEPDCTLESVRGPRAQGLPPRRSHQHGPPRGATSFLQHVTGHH

[4] = biological target: Ribosomal protein S6 kinase alpha-2 (Homo sapiens) (UniProt Q15349); assay: Selectivity interaction (Kinome Scan (DiscoverX)) EUB0000229b RPS6KA2; settings: at 10 µM
[5] = biological target: T2, Serine/threonine-protein kinase 4 (Homo sapiens) (UniProt Q13043); assay: Selectivity interaction (KinomeScan (DiscoverX)) EUB0000229b STK4; settings: at 10 µM
T2 sequence (whole entry): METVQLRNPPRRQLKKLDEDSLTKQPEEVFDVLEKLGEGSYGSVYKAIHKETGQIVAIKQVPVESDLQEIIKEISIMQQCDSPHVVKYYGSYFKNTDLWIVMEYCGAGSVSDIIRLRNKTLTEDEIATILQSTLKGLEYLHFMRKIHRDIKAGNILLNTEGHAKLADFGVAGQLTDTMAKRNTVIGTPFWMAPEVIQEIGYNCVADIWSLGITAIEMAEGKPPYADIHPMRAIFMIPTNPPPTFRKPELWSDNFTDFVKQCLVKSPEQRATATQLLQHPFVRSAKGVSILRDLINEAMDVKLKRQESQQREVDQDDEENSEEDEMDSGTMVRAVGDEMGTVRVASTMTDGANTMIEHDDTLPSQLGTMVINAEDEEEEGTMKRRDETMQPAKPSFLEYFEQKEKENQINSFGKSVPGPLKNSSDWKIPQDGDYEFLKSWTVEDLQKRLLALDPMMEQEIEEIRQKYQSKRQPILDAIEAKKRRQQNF

[6] = biological target: Phosphatidylinositol 4,5-bisphosphate 3-kinase catalytic subunit alpha isoform (Homo sapiens) (UniProt P42336); assay: (§1) Selectivity interaction (KinomeScan (DiscoverX)) EUB0000618a PIK3CA; settings: at 10 µM
[7] = test system: Phosphatidylinositol 4,5-bisphosphate 3-kinase catalytic subunit alpha isoform (Homo sapiens), P42336 [C420R]; assay: as §1; settings: at 10 µM
[8] = test system: Phosphatidylinositol 4,5-bisphosphate 3-kinase catalytic subunit alpha isoform (Homo sapiens), P42336 [E542K]; assay: as §1; settings: at 10 µM
[9] = test system: Phosphatidylinositol 4,5-bisphosphate 3-kinase catalytic subunit alpha isoform (Homo sapiens), P42336 [E545A]; assay: as §1; settings: at 10 µM
[10] = test system: Phosphatidylinositol 4,5-bisphosphate 3-kinase catalytic subunit alpha isoform (Homo sapiens), P42336 [E545K]; assay: as §1; settings: at 10 µM
[11] = test system: Phosphatidylinositol 4,5-bisphosphate 3-kinase catalytic subunit alpha isoform (Homo sapiens), P42336 [H1047L]; assay: as §1; settings: at 10 µM
[12] = test system: Phosphatidylinositol 4,5-bisphosphate 3-kinase catalytic subunit alpha isoform (Homo sapiens), P42336 [H1047Y]; assay: as §1; settings: at 10 µM
[13] = test system: Phosphatidylinositol 4,5-bisphosphate 3-kinase catalytic subunit alpha isoform (Homo sapiens), P42336 [M1043I]; assay: as §1; settings: at 10 µM
[14] = test system: Phosphatidylinositol 4,5-bisphosphate 3-kinase catalytic subunit alpha isoform (Homo sapiens), P42336 [Q546K]; assay: as §1; settings: at 10 µM
[15] = biological target: Homeodomain-interacting protein kinase 2 (Homo sapiens, UniProt Q9H2X6); assay: Selectivity interaction (KinomeScan (DiscoverX)) EUB0001619a HIPK2; settings: at 1 µM
[16] = biological target: T3, Dual specificity mitogen-activated protein kinase kinase 4 (Homo sapiens) (UniProt P45985); assay: Selectivity interaction (ActivX KiNativ screen (ex vivo kinase selectivity in human PBMCs)) EUB0001619a MAP2K4; type: cell-based; settings: PBMC, at 1 µM
T3 sequence (whole entry): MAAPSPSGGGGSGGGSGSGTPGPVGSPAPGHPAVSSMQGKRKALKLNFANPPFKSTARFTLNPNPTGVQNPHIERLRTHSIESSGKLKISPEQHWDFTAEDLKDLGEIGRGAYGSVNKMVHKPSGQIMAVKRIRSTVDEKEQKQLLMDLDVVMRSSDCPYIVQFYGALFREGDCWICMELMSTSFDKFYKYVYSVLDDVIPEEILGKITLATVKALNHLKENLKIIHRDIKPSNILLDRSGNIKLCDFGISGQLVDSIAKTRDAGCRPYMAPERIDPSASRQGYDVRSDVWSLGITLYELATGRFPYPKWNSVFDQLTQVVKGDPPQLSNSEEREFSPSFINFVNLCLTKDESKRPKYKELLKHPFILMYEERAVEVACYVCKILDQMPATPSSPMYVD

Sequence of Phosphatidylinositol 4,5-bisphosphate 3-kinase catalytic subunit alpha isoform (Homo sapiens), P42336 [Q546K] (P42336 whole entry Q546K, canonical isoform): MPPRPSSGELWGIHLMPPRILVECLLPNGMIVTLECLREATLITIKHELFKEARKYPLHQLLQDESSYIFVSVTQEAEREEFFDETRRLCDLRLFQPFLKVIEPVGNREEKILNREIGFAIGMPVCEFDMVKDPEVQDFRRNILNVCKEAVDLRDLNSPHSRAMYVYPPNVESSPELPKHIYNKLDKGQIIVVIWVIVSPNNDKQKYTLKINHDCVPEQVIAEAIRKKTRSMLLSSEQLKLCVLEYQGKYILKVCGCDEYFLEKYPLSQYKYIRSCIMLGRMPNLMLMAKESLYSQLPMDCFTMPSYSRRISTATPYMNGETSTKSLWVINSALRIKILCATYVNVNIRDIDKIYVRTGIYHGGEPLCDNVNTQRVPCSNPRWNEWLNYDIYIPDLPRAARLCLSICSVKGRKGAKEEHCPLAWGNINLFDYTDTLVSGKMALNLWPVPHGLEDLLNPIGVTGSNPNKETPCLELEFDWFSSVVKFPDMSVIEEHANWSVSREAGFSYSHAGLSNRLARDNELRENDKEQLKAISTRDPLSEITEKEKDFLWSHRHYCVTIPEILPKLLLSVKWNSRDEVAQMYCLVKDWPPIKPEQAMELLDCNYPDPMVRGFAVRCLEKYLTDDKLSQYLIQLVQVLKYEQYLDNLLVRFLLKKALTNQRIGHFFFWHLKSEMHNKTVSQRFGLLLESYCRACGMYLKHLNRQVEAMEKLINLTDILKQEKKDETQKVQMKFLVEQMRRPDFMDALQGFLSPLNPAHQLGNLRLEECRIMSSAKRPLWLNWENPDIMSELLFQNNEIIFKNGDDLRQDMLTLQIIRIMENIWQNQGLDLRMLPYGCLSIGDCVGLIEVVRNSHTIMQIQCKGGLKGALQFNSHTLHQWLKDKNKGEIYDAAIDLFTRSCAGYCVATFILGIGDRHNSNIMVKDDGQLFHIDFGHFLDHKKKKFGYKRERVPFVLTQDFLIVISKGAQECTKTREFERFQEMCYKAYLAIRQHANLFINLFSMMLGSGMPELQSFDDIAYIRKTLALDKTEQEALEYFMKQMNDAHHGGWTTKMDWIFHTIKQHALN
Sequence of Phosphatidylinositol 4,5-bisphosphate 3-kinase catalytic subunit alpha isoform (Homo sapiens), P42336 [M1043I] (P42336 whole entry M1043I, canonical isoform): as the sequence (P42336 whole entry Q546K, canonical isoform) above, with K546Q, M1043I counted along it
Sequence of Phosphatidylinositol 4,5-bisphosphate 3-kinase catalytic subunit alpha isoform (Homo sapiens) (P42336 whole entry, canonical isoform): as the sequence (P42336 whole entry Q546K, canonical isoform) above, with K546Q counted along it
Sequence of Phosphatidylinositol 4,5-bisphosphate 3-kinase catalytic subunit alpha isoform (Homo sapiens), P42336 [H1047Y] (P42336 whole entry H1047Y, canonical isoform): as the sequence (P42336 whole entry Q546K, canonical isoform) above, with K546Q, H1047Y counted along it
Sequence of Fibroblast growth factor receptor 2 (Homo sapiens) (P21802 22-821 limits assumed): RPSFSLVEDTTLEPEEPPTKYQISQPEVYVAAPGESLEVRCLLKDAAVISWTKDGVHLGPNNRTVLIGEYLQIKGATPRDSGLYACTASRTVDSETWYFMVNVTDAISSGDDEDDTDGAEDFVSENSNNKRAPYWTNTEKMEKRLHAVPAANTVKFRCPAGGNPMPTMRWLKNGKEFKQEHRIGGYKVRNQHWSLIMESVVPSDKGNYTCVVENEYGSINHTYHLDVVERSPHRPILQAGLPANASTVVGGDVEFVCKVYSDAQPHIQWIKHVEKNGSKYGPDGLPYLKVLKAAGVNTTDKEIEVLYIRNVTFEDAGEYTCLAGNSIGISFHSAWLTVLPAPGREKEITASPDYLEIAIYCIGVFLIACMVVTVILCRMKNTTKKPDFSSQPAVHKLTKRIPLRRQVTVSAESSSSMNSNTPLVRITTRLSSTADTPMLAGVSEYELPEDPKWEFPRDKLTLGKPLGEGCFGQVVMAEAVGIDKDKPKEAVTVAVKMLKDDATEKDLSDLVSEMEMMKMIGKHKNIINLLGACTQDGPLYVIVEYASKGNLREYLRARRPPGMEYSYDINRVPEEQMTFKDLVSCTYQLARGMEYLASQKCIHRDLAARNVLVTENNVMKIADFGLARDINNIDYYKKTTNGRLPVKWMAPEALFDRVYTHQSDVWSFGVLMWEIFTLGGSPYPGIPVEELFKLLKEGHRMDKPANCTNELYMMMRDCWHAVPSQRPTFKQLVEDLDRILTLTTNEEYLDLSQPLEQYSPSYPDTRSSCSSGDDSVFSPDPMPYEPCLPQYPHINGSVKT

Molecule CCN(CC)CCCCNc1ncc2cc(-c3cc(OC)cc(OC)c3)c(NC(=O)NC(C)(C)C)nc2n1 has a % of control [1] of 100%.

With COc1cc(Nc2nc(C)cc(-c3cnn4nc(OC)ccc34)n2)cc(C(F)(F)F)c1 the % of control [2] was 90%.

Molecule C=CC(=O)Nc1cc(-n2c(=O)ccc3cnc4ccc(-c5ccc(NS(C)(=O)=O)cc5)cc4c32)ccc1C has a % of control ([3]; at 1 µM) of 100% and a % of control ([3]; at 10 µM) of 71%.

COc1cc(N(C)c2ccnc3ccc(C(F)(F)F)cc23)cc(OC)c1OC showed a % binding [4] of 84% and a % binding [5] of 99%.

O[C@H]1CC[C@H](Nc2ncc3nc(Nc4c(F)cc(F)cc4F)n([C@H]4CCOC4)c3n2)CC1 was tested, and the % of control [6] was 100%, the % of control [7] was 100% and the % of control [8] was 100%. It also gave a % of control [9] of 100%, a % of control [10] of 100% and a % of control [11] of 100%. For the same molecule, the % of control [12] was 100%, the % of control [13] was 100% and the % of control [14] was 100%.

In the case of N#Cc1cccc(-c2c[nH]c3ncnc(N4CCOCC4)c23)c1, the % of control [15] is reported as 65% and the % of inhibition [16] is reported as 2%.
